{
  "source": "patent US20150250882A1",
  "about": "“Fatty Acid Acylated Amino Acids for Growth Hormone Delivery” (Novo Nordisk Health Care AG, priority 2012, published 2015)",
  "key": {"[1]": {"experiment": "Pharmacokinetics (T½) of growth hormone compounds in rats after i.v./s.c. single dose", "assay_type": "in vivo, Sprague Dawley rats", "conditions": "assay of Example 1.C (i.v. or s.c.)", "description": "The pharmacokinetic of the compounds of the examples is investigated in male Sprague Dawley rats after intravenous (i.v.) and subcutaneous (s.c.) single dose administration.\nTest compounds are diluted to a final concentration of 1 mg/mL in a dilution buffer consisting of: Glycine 20 mg/mL, mannitol 2 mg/mL, NaHCO3 2.5 mg/mL, pH adjusted to 8.2.\nThe test compounds are studied in male Sprague Dawley rats weighing 250 g. The test compounds are administered as a single injection either i.v. in the tail vein or s.c. in the neck with a 25 G needle at a predetermined dose such as of 15 nmol/rat in volume of 0.1 ml (concentration 150 nmol/ml) or 60 nmol/kg body weight. […]\nAt each sampling time 0.25 ml blood is drawn from the tail vein using a 25 G needle. The blood is sampled into a EDTA coated test tube and stored on ice until centrifugation at 1200×G for 10 min at 4° C. […]\nTest compound concentrations are determined by a sandwich ELISA using a guinea pig anti-hGH polyclonal antibody as catcher, and biotinylated hGH binding-protein (soluble part of human GH receptor) as detector. […]\nA non-compartmental pharmacokinetic analysis is performed on mean concentration-time profiles of each test compound using WinNonlin Professional (Pharsight Inc., Mountain View, Calif., USA). The pharmacokinetic parameter estimates of terminal half-life (t1/2) and mean residence time (MRT) are calculated."}, "HT29-MTX (E12) cells": {"test_system": "HT29-MTX (E12) cells", "experiment": "Transepithelial transport of GH compounds across E12 cell monolayers (Papp)", "assay_type": "in vitro ADME", "conditions": "for Fold increase (Papp of GH A2 + FA-aa relative to GH A2 alone): GH-A2, same procedure: 0.5 mM FA-aa, transport buffer pH 7.4; for effect on permeation / trans-epithelia transport of the growth hormone compounds (in words): GH-A1 and GH-A2; for effect on GH A1 transport (in words): based on fold increase relative to GH A1 alone; for effect on the transportation of GH A2 (in words): fold increase relative to GH A2 alone", "description": "HT29-MTX (E12) cells (Pharm Res. 2001; 18(8):1138-45 and Pharm Res. 2007; 24(7):1346-56) were grown in Dulbecco's Modified Eagle Medium supplemented with 10% foetal bovine serum (FBS), 1% penicillin/streptomycin, 1% L-glutamine and 1% non-essential amino acids. For the transport assay, E12 cells were seeded onto tissue culture treated polycarbonate filters in 12-well Transwell® plates (1.13 cm2, 0.4 μm pore size) at a density of 10^5 cells per well. Cells were cultured at 37° C. in an atmosphere of 5% CO2 and the culture media was exchange every second day. Transport experiments were performed after 14-18 days in culture.\nThe amount of GH compound transported from the donor chamber (apical side) to the receiver chamber (basolateral side) was measured.\nBefore the experiment, the E12 cells are equilibrated for 60 min with transport buffer on both sides of the epithelium. Buffer is then removed and the experiment initiated by adding a test solution to the donor chamber and a corresponding transport buffer to the receiver chamber. Donor samples ([…]) are taken at 0 min and at the end of the experiment. Receiver samples ([…]) are taken at regular intervals such as every 15 min. The study is usually performed in an atmosphere of 5% CO2-95% O2 at 37° C. on a shaking plate (30 rpm).\nTransport of [3H]mannitol, a marker for paracellular transport, may be measured, to verify the integrity of the epithelium, using a scintillation counter.\nBefore and during the experiment the transepithelial electrical resistance (TEER) of the cell monolayers is monitored. The TEER is measured with EVOM™ Epithelial Voltohmmeter connected to Chopsticks.\nThe transport study was performed as described in General Method D (Example 1). […] […] The permeation (Papp) of a Growth hormone compound in the presence of different FA-aa's was measured and the fold increase (or decrease) compared to the Growth hormone compound alone was calculated."}, "[2]": {"experiment": "Intra intestinal (mid-jejunum) administration of GH compounds with FA-aa to rats, AUC enhancement", "assay_type": "in vivo, Sprague-Dawley rats", "conditions": "SBTI 2% with C16-sarcosinate 30 mg/ml, FIGS. 5, 6 and 7", "method": "Each composition is prepared as a 100 pl dosage injected into mid-jejenum of fully anaesthetized overnight fasted Sprague-Dawley rats (n=6, 9 or 18).\nAt each sampling time 0.25 ml blood is drawn from the tail vein using a 25 G needle. Sampling times are: pre-dose and 0.25, 0.5, 1, 2, 4 and 6 hours after dosing. The blood is sampled into a EDTA coated test tube and stored on ice until centrifugation at 1200×G for 10 min at 4° C. Plasma is transferred to a Micronic tube and stored at −20° C. until analysis.\nThe limit of detection of the assay was 0.2 nM.\nThe samples were analysed using a Luminescence Oxygen Channeling Immunoassay (LOCI), a homogenous bead based assay. […] One of the bead reagents is a generic reagent (donor beads) and is coated with streptavidin and contains a photosensitive dye. The second bead reagent (acceptor beads) is coated with an antibody making up the sandwich. […] Illumination of the complex releases singlet oxygen from the donor beads which channels into the acceptor beads and triggers chemiluminescence which is measured in the EnVision plate reader. […]"}},
  "data": [
    {"compound": "wt human growth hormone: human growth hormone identified by SEQ ID NO 1", "values": [
      {"measurement": "T ½", "setting": "[1]", "result": "12 to 14", "unit": "min"}
    ]},
    {"compound": "CCCCCCCCCCCCCCCC(=O)NC(CC(=O)O)C(=O)O", "note": "(stereo not drawn) [C16-(D)-Asp]", "values": [
      {"measurement": "Fold increase (Papp of GH A2 + FA-aa relative to GH A2 alone)", "setting": "HT29-MTX (E12) cells", "result": 1.8, "unit": "fold"}
    ]},
    {"compound": "CCCCCCCCCCCCCCCC(=O)NC(CCC(=O)O)C(=O)O", "note": "[C16-D-Glu]", "values": [
      {"measurement": "Fold increase (Papp of GH A2 + FA-aa relative to GH A2 alone)", "setting": "HT29-MTX (E12) cells", "result": 4.1, "unit": "fold"}
    ]},
    {"compound": "CCCCCCCCCCCCCCCC(=O)N[C@@H](CCC(N)=O)C(=O)[O-].[Na+]", "note": "[C16-Gln, sodium (2S)-5-amino-5-oxo-2-(hexadecanoylamino)pentanoate]", "values": [
      {"measurement": "effect on permeation / trans-epithelia transport of the growth hormone compounds (in words)", "setting": "HT29-MTX (E12) cells", "result": "superior effect"},
      {"measurement": "effect on GH A1 transport (in words)", "setting": "HT29-MTX (E12) cells", "result": "biggest effect"},
      {"measurement": "effect on the transportation of GH A2 (in words)", "setting": "HT29-MTX (E12) cells", "result": "biggest effect"}
    ]},
    {"compound": "CCCCCCCCCC(=O)N(C)CC(=O)O", "note": "[C10-Sarc, N-decanoyl-L-sarcosine]", "values": [
      {"measurement": "Fold increase (Papp of GH A2 + FA-aa relative to GH A2 alone)", "setting": "HT29-MTX (E12) cells", "result": 0.7, "unit": "fold"}
    ]},
    {"compound": "CCCCCCCCCCCCCCCC(=O)N[C@@H](CCC(=O)[O-])C(=O)[O-].[Na+].[Na+]", "note": "[C16-Glu, disodium (2S)-2-(hexadecanoylamino)pentanedioate]", "values": [
      {"measurement": "effect on permeation / trans-epithelia transport of the growth hormone compounds (in words)", "setting": "HT29-MTX (E12) cells", "result": "superior effect"},
      {"measurement": "effect on GH A1 transport (in words)", "setting": "HT29-MTX (E12) cells", "result": "biggest effect"},
      {"measurement": "effect on the transportation of GH A2 (in words)", "setting": "HT29-MTX (E12) cells", "result": "biggest effect"}
    ]},
    {"compound": "CCCCCCCCCCCCCCCC(=O)N(C)CC(=O)[O-].[Na+]", "note": "[C16-Sarc, sodium 2-[hexadecanoyl(methyl)amino]acetate]", "values": [
      {"measurement": "effect of protease inhibitor on GH absorption enhancing effect of FA-aa (in words)", "setting": "[2]", "result": "significantly improved by the presence of an enzyme inhibitor"}
    ]},
    {"compound": "CCCCCCCCCCCC(=O)NCC(=O)O", "note": "[C12-Gly, N-dodecanoyl-L-glycine]", "values": [
      {"measurement": "Fold increase (Papp of GH A2 + FA-aa relative to GH A2 alone)", "setting": "HT29-MTX (E12) cells", "result": 3.4, "unit": "fold"}
    ]}
  ]
}
